# Measured values as given in ChEMBL document CHEMBL1126188, “Synthesis and anti-HIV activity of 4'-thio-2',3'-dideoxynucleosides” (J Med Chem, 1992).
# Columns and labels:
# CCRF-CEM [1] = assay: Minimum compound concentration that reduced cell viability by 25% for HIV replication in CEM cells.; format: functional, Homo sapiens
# MT2 [2] = assay: Compound was tested for its inhibitory activity against HIV replication in MT-2 cells.; format: functional, cell-based; conditions: Homo sapiens
# MT2 [3] = assay: Total viral index (TAI) is the area between the cytotoxicity and the antiviral activity curve for MT-2 cell line.; format: functional, Homo sapiens
# MT2 [4] = assay: Minimum compound concentration that reduced cell viability by 25% for HIV replication in MT-2 cells.; format: functional, Homo sapiens
# [5] = Selectivity index is calculated by dividing the TC25(MT2) by ID50(MT2); format: functional
# [6] = Selectivity index is calculated by dividing the TC25(CEM) by ID50(CEM); format: functional
# CCRF-CEM [7] = assay: Compound was tested for its inhibitory activity against HIV replication in CEM cells.; conditions: Homo sapiens
# CCRF-CEM [8] = assay: Minimum compound concentration that reduced cell viability by 25% for HIV replication in CEM cells.
# CCRF-CEM [9] = assay: Total viral index (TAI) is the area between the cytotoxicity and the antiviral activity curve for CEM cells.
# CCRF-CEM [10] = assay: Compound was tested for its inhibitory activity against HIV replication in CEM cells.; format: functional, cell-based; conditions: Homo sapiens
# CCRF-CEM [11] = assay: Total viral index (TAI) is the area between the cytotoxicity and the antiviral activity curve for CEM cells.; format: functional, Homo sapiens
# CCRF-CEM [12] = assay: Total viral index (TAI) is the area between the cytotoxicity and the antiviral activity curve for CEM cell line.; format: functional, Homo sapiens
# MT2 [13] = assay: Total viral index (TAI) is the area between the cytotoxicity and the antiviral activity curve for MT-2 cells.; format: functional, Homo sapiens
IC50 (MT2 [2]),IC50 (CCRF-CEM [7]),IC50 (CCRF-CEM [10]),SMILES,TC25 (CCRF-CEM [1]),TAI (MT2 [3]),TC25 (MT2 [4]),Selectivity index [5],Selectivity index [6],TC25 (CCRF-CEM [8]),TAI (CCRF-CEM [9]),TAI (CCRF-CEM [11]),TAI (CCRF-CEM [12]),TAI (MT2 [13])
98 µg/mL,,,Nc1nc(O)c2ncn(C3CC[C@@H](CO)S3)c2n1 (some centres not stated),>100 µg/mL,11,>200 µg/mL,1.6,,,,,,
,37 µg/mL,,Nc1nc(N)c2ncn(C3CC[C@@H](CO)S3)c2n1 (some centres not stated),,,,,2.6,97 µg/mL,21,,,
0.44 µg/mL,,0.05 µg/mL,Nc1ccn([C@H]2CC[C@@H](CO)O2)c(=O)n1 [ZALCITABINE],5.3 µg/mL,>52,>9.8 µg/mL,> 25,120,,,>63,,
38 µg/mL,,1 µg/mL,Nc1ccn(C2CC[C@@H](CO)S2)c(=O)n1 (some centres not stated),>100 µg/mL,,>100 µg/mL,> 100,> 100,,,,>65,>23
80 µg/mL,,,Nc1ncnc2c1ncn2C1CC[C@@H](CO)S1 (some centres not stated),,>10,>100 µg/mL,1.3,,,,,,
0.14 µg/mL,,< 0.03 µg/mL,Cc1cn([C@H]2C[C@H](N=[N+]=[N-])[C@@H](CO)O2)c(=O)[nH]c1=O [ZIDOVUDINE],>10 µg/mL,>82,9.3 µg/mL,> 160,> 300,,,>93,,
